Measured values from patent publication US7566712B2, “Biaryl piperazinyl-pyridine analogues” (Neurogen Corporation, priority 2003, dated 2009).

Molecular target: T1, human capsaicin receptor (Homo sapiens, UniProt Q8NER1)
T1 construct: pBK-CMV expression construct encoding the full length human capsaicin receptor; expressed in transfected cells
Assay: Calcium mobilization assay, determination of antagonist activity (Example 6)
Format: cell-based
Conditions: Table II
Procedure, shortened: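 HEK293 clonal lines stably expressing full-length human capsaicin receptor, loaded with Fluo-3 AM in KRH buffer pH 7.4, 1–2 h at 37 °C. Compounds (1–5 μM final) preincubated 0.5–6 h at room temperature, then capsaicin at its EC50 added. FLIPR/Fluoroskan calcium signal; IC50 as 50% decrease of capsaicin response.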

[1] = determined as described in Example 6 (antagonist activity), "*" = 1 micromolar or less
[2] = determined as described in Example 6 (calcium mobilization, antagonist activity)
[3] = IC50 determined as described in Example 6

T1 sequence (Q8NER1 whole entry): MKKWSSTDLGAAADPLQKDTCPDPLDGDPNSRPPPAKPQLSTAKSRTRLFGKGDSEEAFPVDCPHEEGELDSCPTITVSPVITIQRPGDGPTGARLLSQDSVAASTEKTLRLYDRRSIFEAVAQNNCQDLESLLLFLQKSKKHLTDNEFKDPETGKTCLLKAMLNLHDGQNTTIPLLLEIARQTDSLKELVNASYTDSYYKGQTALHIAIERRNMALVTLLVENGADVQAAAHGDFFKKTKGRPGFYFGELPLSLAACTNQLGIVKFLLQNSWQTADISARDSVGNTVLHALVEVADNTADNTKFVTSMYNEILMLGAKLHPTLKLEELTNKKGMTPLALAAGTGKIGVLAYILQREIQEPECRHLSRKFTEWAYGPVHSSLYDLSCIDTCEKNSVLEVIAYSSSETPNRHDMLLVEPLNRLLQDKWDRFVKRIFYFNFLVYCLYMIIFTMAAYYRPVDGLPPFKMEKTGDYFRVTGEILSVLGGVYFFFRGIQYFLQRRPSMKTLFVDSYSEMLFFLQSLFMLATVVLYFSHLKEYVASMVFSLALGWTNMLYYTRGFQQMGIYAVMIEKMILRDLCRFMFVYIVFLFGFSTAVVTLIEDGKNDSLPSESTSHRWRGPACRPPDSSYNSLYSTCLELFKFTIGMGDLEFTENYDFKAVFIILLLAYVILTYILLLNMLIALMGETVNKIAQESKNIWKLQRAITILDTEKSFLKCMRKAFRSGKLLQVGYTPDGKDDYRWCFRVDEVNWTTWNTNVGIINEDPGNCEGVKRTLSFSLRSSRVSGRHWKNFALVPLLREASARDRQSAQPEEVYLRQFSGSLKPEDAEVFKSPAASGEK

IC50 [1] | IC50 [2] | Compound | also measured
≤ 1000 nM |  | CC1CCCN1c1nc(-c2ccc(F)c(F)c2)cc(N2CCN(c3ncccc3Cl)C[C@@H]2C)n1 (stereo partly drawn) [Example 922, 4-[(2S)-4-(3-chloropyridin-2-yl)-2-methylpiperazin-1-yl]-6-(3,4-difluorophenyl)-2-(2-methylpyrrolidin-1-yl)pyrimidine] | 
≤ 1000 nM |  | CC1CCCN1c1nc(-c2ccc(F)c(F)c2)cc(N2CCN(c3ncccc3F)C[C@H]2C)n1 (stereo partly shown) [Example 895, 4-(3,4-difluorophenyl)-6-[4-(3-fluoropyridin-2-yl)-2-methylpiperazin-1-yl]-2-(2-methylpyrrolidin-1-yl)pyrimidine] | 
≤ 1000 nM |  | C[C@@H]1CN(c2nccnc2Cl)CCN1c1cc(-c2ccc(F)c(Cl)c2)nc(N2CCOCC2)n1 [Example 910, 4-{4-(3-chloro-4-fluorophenyl)-6-[(2R)-4-(3-chloropyrazin-2-yl)-2-methylpiperazin-1-yl]pyrimidin-2-yl}morpholine] | 
≤ 1000 nM |  | C[C@@H]1CN(c2nccnc2Cl)CCN1c1cc(-c2ccc(F)cc2)nc(N2CCOCC2)n1 [Example 929, 4-[4-[(2R)-4-(3-chloropyrazin-2-yl)-2-methylpiperazin-1-yl]-6-(4-fluorophenyl)pyrimidin-2-yl]morpholine] | 
 | ≤ 1000 nM | CNC(=O)C1CCN(c2nc(-c3ccc(F)c(Cl)c3)cc(N3CCN(c4ncccc4C(F)(F)F)CC3)n2)CC1 [Example 653, 1-(4-(3-chloro-4-fluorophenyl)-6-{4-[3-(trifluoromethyl)pyridin-2-yl]piperazin-1-yl}pyrimidin-2-yl)-N-methylpiperidine-4-carboxamide] | 
 | ≤ 1000 nM | CC(C)N1CC=C(c2nc(-c3ccc(F)c(Cl)c3)cc(N3CCN(c4ncccc4C(F)(F)F)CC3)n2)CC1 [Example 660, 4-(3-chloro-4-fluorophenyl)-2-(1-isopropyl-1,2,3,6-tetrahydropyridin-4-yl)-6-{4-[3-(trifluoromethyl)pyridin-2-yl]piperazin-1-yl}pyrimidine] | 
 | ≤ 1000 nM | CCc1nc(C)cn1-c1nc(-c2cccc(Cl)c2)cc(N2CCN(c3ncccc3C(F)(F)F)CC2)n1 [Example 647, 4-(3-chlorophenyl)-2-(2-ethyl-4-methyl-1H-imidazol-1-yl)-6-(4-[3-(trifluoromethyl)pyridin-2-yl]piperazin-1-yl}pyrimidine] | 
 | ≤ 1000 nM | O=C1CCN1c1nc(-c2ccc(F)c(Cl)c2)cc(N2CCN(c3ncccc3C(F)(F)F)CC2)n1 [Example 747, 1-(4-(3-chloro-4-fluorophenyl)-6-{4-(3-(trifluoromethyl)pyridin-2-yl]piperazin-1-yl}pyrimidin-2-yl)azetidin-2-one] | 
 |  | Fc1ccc(-c2cc(N3CCN(c4ncccc4C(F)(F)F)CC3)nc(OC3CCOCC3)n2)cc1Cl [Example 557, 4-(3-chloro-4-fluorophenyl)-2-(tetrahydro-2H-pyran-4-yloxy)-6-{4-[3-(trifluoromethyl)pyridin-2-yl]piperazin-1-yl}pyrimidane] | IC50 [3]: ≤ 1000 nM
≤ 1000 nM |  | C[C@@H]1CN(c2ncccc2Cl)CCN1c1cc(-c2ccc(F)cc2)nc(S(C)(=O)=O)n1 (stereo in doubt) [Example 840, 4-[4-(3-chloropyridin-2-yl)-2-methylpiperazin-1-yl]-6-(4-fluorophenyl)-2-(methylsulfonyl)pyrimidine] | 
 | ≤ 1000 nM | Fc1ccc(-c2cc(N3CCN(c4ncccc4C(F)(F)F)CC3)nc(N3CCN(CC4CC4)CC3)n2)cc1Cl [Example 624, 4-(3-chloro-4-fluorophenyl)-2-[4-(cyclopropylmethyl)piperazin-1-yl]-6-{4-[3-(trifluoromethyl)pyridin-2-yl]piperazin-1-yl}pyrimidine] | 
 | ≤ 1000 nM | COC[C@@H]1CCCN1c1nc(-c2ccc(F)c(C)c2)cc(N2CCN(c3ncccc3Cl)CC2)n1 [Example 726] | 
≤ 1000 nM |  | Cc1cc(C#N)cnc1N1CCN(c2cc(-c3ccc(F)cc3)nc(N3CCCC3C)n2)[C@H](C)C1 (stereo partly shown) [Example 932, 6-{4-[6-(4-fluorophenyl)-2-(2-methylpyrrolidin-1-yl)pyrimidin-4-yl]-3-methylpiperazin-1-yl}-5-methylnicotinonitrile] | 
 |  | C[C@@H]1CN(c2ncccc2C#N)CCN1c1cc(-c2ccc(Cl)cc2)nc(N2CCOCC2)n1 [Example 482, 2-{(3R)-4-[6-(4-chlorophenyl)-2-morpholin-4-ylpyrimidin-4-yl]-3-methylpiperazin-1-yl}nicotinonitrile] | IC50 [3]: ≤ 1000 nM
 |  | CCCCN1CCN(c2nc(-c3ccc(F)c(C)c3)nc(N3CCN(c4ncccc4C(F)(F)F)CC3)n2)CC1 [Example 452, 2-(4-butylpiperazin-1-yl)-4-(4-fluoro-3-methylphenyl)-6-{4-[3-(trifluoromethyl)pyridin-2-yl]piperazin-1-yl}-1,3,5-triazine] | IC50 [3]: ≤ 1000 nM
 |  | C[C@@H]1CN(c2ncccc2Cl)CCN1c1cc(-c2ccc(F)cc2)nc(N2CCOCC2)n1 [Example 487, 4-[4-[(2R)-4-(3-chloropyridin-2-yl)-2-methylpiperazin-1-yl]-6-(4-fluorophenyl)pyrimidin-2-yl]morpholine] | IC50 [3]: ≤ 1000 nM

IC50 [1] | IC50 [2] | Compound | also measured
 | ≤ 1000 nM | Cc1cc(-c2cc(N3CCN(c4ncccc4C(F)(F)F)CC3)nc(N3C(C)C=CC3C)n2)ccc1F (stereo not shown) [Example 739, 2-(2,5-dimethyl-2,5-dihydro-1H-pyrrol-1-yl)-4-(4-fluoro-3-methylphenyl)-6-{4-[3-(trifluoromethyl)pyridin-2-yl]piperazin-1-yl}pyrimidine] | 
≤ 1000 nM |  | CCCN1CC[C@H](N(C)c2nc(-c3ccc(F)c(C)c3)cc(N3CCN(c4ncccc4C(F)(F)F)CC3)n2)C1 [Example 831, 4-(4-fluoro-3-methylphenyl)-N-methyl-N-[(3S)-1-propylpyrrolidin-3-yl]-6-{4-[3-(trifluoromethyl)pyridin-2-yl]piperazin-1-yl}pyrimidin-2-amine] | 
≤ 1000 nM |  | C[C@@H]1CN(c2nccnc2Cl)CCN1c1cc(-c2ccc(F)c(Cl)c2)nc(Cl)n1 (stereo in doubt) [Example 907, 2-chloro-4-(3-chloro-4-fluorophenyl)-6-[4-(3-chloropyrazin-2-yl)-2-methylpiperazin-1-yl]pyrimidine] | 
≤ 1000 nM |  | CC(C)N(C)C1CN(c2nc(-c3ccc(F)c(Cl)c3)cc(N3CCN(c4ncccc4C(F)(F)F)CC3)n2)C1 [Example 811, 1-(4-(3-chloro-4-fluorophenyl)-6-{4-[3-(trifluoromethyl)pyridin-2-yl]piperazin-1-yl}pyrimidin-2-yl)-N-isopropyl-N-methylazetidin-3-amine] | 
 | ≤ 1000 nM | COc1cccnc1N1CCN(c2cc(-c3ccc(F)c(Cl)c3)nc(N3CCOCC3)n2)CC1 [Example 586, 4-{4-(3-chloro-4-fluorophenyl)-6-[4-(3-methoxypyridin-2-yl)piperazan-1-yl]pyrimidin-2-yl}morpholine] | 
 | ≤ 1000 nM | Cc1cc(-c2cc(N3CCN(c4ncccc4C(F)(F)F)CC3)nc(-c3ccncc3)n2)ccc1F [Example 689, 4-(4-fluoro-3-methylphenyl)-2-pyridin-4-yl-6-{4-[3-(trifluoromethyl)pyridin-2-yl]piperazin-1-yl}pyrimidine] | 
≤ 1000 nM |  | C[C@@H]1CN(c2ncccc2Cl)CCN1c1cc(-c2cccnc2)nc(N2CCCC2)n1 [Example 883, 4-[(2R)-4-(3-chloropyridin-2-yl)-2-methylpiperazin-1-yl]-6-pyridin-3-yl-2-pyrrolidin-1-ylpyrimidine] | 
≤ 1000 nM |  | Cc1cc(NS(C)(=O)=O)cnc1N1CCN(c2cc(-c3ccc(F)c(Cl)c3)nc(N3CCCC3C)n2)CC1 (stereo not shown) [Example 817, N-(6-{4-[6-(3-chloro-4-fluorophenyl)-2-(2-methylpyrrolidin-1-yl)pyrimidin-4-yl]piperazin-1-yl}-5-methylpyridin-3-yl)methanesulfonamide] | 
 |  | CN1CCC(N(C)c2nc(-c3ccc(F)c(Cl)c3)cc(N3CCN(c4ncccc4C(F)(F)F)CC3)n2)CC1 [Example 565] | IC50 [3]: ≤ 1000 nM
≤ 1000 nM |  | CC1CCCN1c1nc(-c2ccc(-c3ncon3)cc2)cc(N2CCN(c3ncccc3Cl)C[C@H]2C)n1 (stereo partly shown) [Example 865, 4-[4-(3-chloropyridin-2-yl)-2-methylpiperazin-1-yl]-2-(2-methylpyrrolidin-1-yl)-6-[4-(1,2,4-oxadiazol-3-yl)phenyl]pyrimidine] | 
 | ≤ 1000 nM | CN(C)C(=O)CN1CCN(c2nc(-c3ccc(F)c(Cl)c3)cc(N3CCN(c4ncccc4C(F)(F)F)CC3)n2)CC1 [Example 652, 2-[4-(4-(3-chloro-4-fluorophenyl)-6-{4-[3-(trifluoromethyl)pyridin-2 yl]piperazin-1-yl}pyrimidin-2-yl)piperazin-1-yl]-N,N-dimethylacetamide] | 
 |  | CC(=O)NC1CCN(c2nc(-c3ccc(F)c(Cl)c3)cc(N3CCN(c4ncccc4C(F)(F)F)CC3)n2)C1 (stereo not shown) [Example 570, N-[1-(4-(3-chloro-4-fluorophenyl)-6-{4-[3-(trifluoromethyl)pyridin-2-yl]piperazin-1-yl}pyrimidin-2-yl)pyrrolidin-3-yl]acetamide] | IC50 [3]: ≤ 1000 nM
≤ 1000 nM |  | CC1(O)CN(c2nc(-c3ccc(F)c(Cl)c3)cc(N3CCN(c4ncccc4C(F)(F)F)CC3)n2)C1 [Example 778, 1-(4-(3-chloro-4-fluorophenyl)-6-{4-[3-(trifluoromethyl)pyridin-2-yl]piperazin-1-yl}pyrimidin-2-yl)-3-methylazetidin-3-oI] | 
 |  | CCCc1ccc(-c2cc(N3CCN(c4ncccc4C#N)C[C@H]3C)nc(N3CCOCC3)n2)cc1 [Example 512, 2-{(3R)-3-methyl-4-[2-morpholin-4-yl-6-(4-propylphenyl)pyrimidin-4-yl]piperazin-1-yl}nicotinonitrile] | IC50 [3]: ≤ 1000 nM
 | ≤ 1000 nM | CC1CCCCN1c1nc(-c2ccc(F)c(Cl)c2)cc(N2CCN(c3ncccc3Cl)C[C@H]2C)n1 (stereo partly drawn) [Example 741, 4-(3-chloro-4-fluorophenyl)-6-[(2R)-4-(3-chloropyridin-2-yl)-2-methylpiperazin-1-yl]-2-(2-methytpiperidin-1-yl)pyrimidine] | 
